Experimental data taken from patent US12043599B2, “Herbicidal compounds” (SYNGENTA PARTICIPATIONS AG, priority 2018, dated 2024).

Assays:
Type in all cases: in vivo
Conditions in all cases: 250 g/h, evaluated after 13 days
Setaria faberi (SETFA) [1] = assay: Post-emergence herbicidal glasshouse test, percentage damage
How it was run: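 Percentage damage was scored 13 days after treatment on a five-point scale (1=0-19% to 5=80-100%). Treatments were post-emergence sprays on 8-day-old wheat, barley and SETFA plants in a glasshouse (24/16 °C day/night, 14 h light, 65% humidity), using acetone/water 50:50 with 0.5% Tween 20 at the stated rates. Wheat additionally received cloquintocet-mexyl safener at 50 g/ha.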

Setaria faberi (SETFA) [2] = assay: Pre-emergence herbicidal glasshouse test, percentage damage
How it was run: (§1)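 Herbicidal effect was scored 13 days after a 250 g/h spray, using bands of 0-19% (1) through 80-100% (5). Sowing preceded spraying by 1 day for pre-emergence and 8 days for post-emergence. The glasshouse ran at 24/16 °C with 14 h light.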

Avena fatua (AVEFA) [3] = assay: as above
How it was run: as §1

[4] = test system: Alopecurus myosuroides (ALOMY); assay: as above
How it was run: as §1

Lolium perenne (LOLPE) [5] = assay: as above
How it was run: as §1

[6] = test system: Echinochloa crus-galli (ECHCG); assay: as above
How it was run: as §1

Avena fatua (AVEFA) [7] = assay: Post-emergence herbicidal glasshouse test, percentage damage
How it was run: as §1

[8] = test system: Alopecurus myosuroides (ALOMY); assay: as above
How it was run: as §1

Lolium perenne (LOLPE) [9] = assay: as above
How it was run: as §1

[10] = test system: Echinochloa crus-galli (ECHCG); assay: as above
How it was run: as §1

Row | SMILES | SETFA POST percentage damage (five point scale) (Setaria faberi (SETFA) [1]) | SETFA PRE percentage damage (five point scale) (Setaria faberi (SETFA) [2]) | AVEFA PRE percentage damage (five point scale) (Avena fatua (AVEFA) [3]) | ALOMY PRE percentage damage (five point scale) [4] | LOLPE PRE percentage damage (five point scale) (Lolium perenne (LOLPE) [5]) | ECHCG PRE percentage damage (five point scale) [6] | AVEFA POST percentage damage (five point scale) (Avena fatua (AVEFA) [7]) | ALOMY POST percentage damage (five point scale) [8] | LOLPE POST percentage damage (five point scale) (Lolium perenne (LOLPE) [9]) | ECHCG POST percentage damage (five point scale) [10]
1 | CC#Cc1cc(C)c(C2C(=O)CC3(CCN(C(=O)C(C)(C)O)CC3)CC2=O)c(C)c1 [Compound A146] | 5 (5=80-100%) | 5 (5=80-100%) | 4 (4=60-79%) | 5 (5=80-100%) | 5 (5=80-100%) | 5 (5=80-100%) | 5 (5=80-100%) | 5 (5=80-100%) | 5 (5=80-100%) | 5 (5=80-100%)
2 | CC#Cc1cc(C)c(C2C(=O)CC3(CCN(C(=O)Nc4ncccc4C)CC3)CC2=O)c(C)c1 [Compound A177] | 5 (5=80-100%) | 5 (5=80-100%) | 4 (4=60-79%) | 2 (2=20-39%) | 5 (5=80-100%) | 5 (5=80-100%) | 5 (5=80-100%) | 4 (4=60-79%) | 5 (5=80-100%) | 5 (5=80-100%)
3 | CC#Cc1cc(C)c(C2=C(OC(=O)C3CC3)CC3(CCN(C(=O)C4CC4)CC3)CC2=O)c(C)c1 [Compound P1, [3-(cyclopropanecarbonyl)-9-(2,6-dimethyl-4-prop-1-ynyl-phenyl)-10-oxo-3-azaspiro[5.5]undec-8-en-8-yl] cyclopropanecarboxylate] | 5 (5=80-100%) | 5 (5=80-100%) | 5 (5=80-100%) | 5 (5=80-100%) | 5 (5=80-100%) | 5 (5=80-100%) | 5 (5=80-100%) | 5 (5=80-100%) | 5 (5=80-100%) | 5 (5=80-100%)
4 | C=CCOCC(=O)N1CCC2(CC1)CC(=O)C(c1c(C)cc(C#CC)cc1C)C(=O)C2 [Compound A201] | 5 (5=80-100%) | 5 (5=80-100%) | 4 (4=60-79%) | 5 (5=80-100%) | 5 (5=80-100%) | 5 (5=80-100%) | 5 (5=80-100%) | 5 (5=80-100%) | 5 (5=80-100%) | 5 (5=80-100%)
5 | CC#Cc1cc(C)c(C2C(=O)CC3(CCN(C(=O)NC(=O)c4cccc(F)n4)CC3)CC2=O)c(C)c1 [Compound A159] | 5 (5=80-100%) | 5 (5=80-100%) | 5 (5=80-100%) | 5 (5=80-100%) | 5 (5=80-100%) | 5 (5=80-100%) | 5 (5=80-100%) | 5 (5=80-100%) | 5 (5=80-100%) | 5 (5=80-100%)
6 | CC#Cc1cc(C)c(C2C(=O)CC3(CCN(C(=O)CCn4cccn4)CC3)CC2=O)c(C)c1 [Compound A195] | 5 (5=80-100%) | 5 (5=80-100%) | 5 (5=80-100%) | 4 (4=60-79%) | 5 (5=80-100%) | 2 (2=20-39%) | 5 (5=80-100%) | 5 (5=80-100%) | 5 (5=80-100%) | 5 (5=80-100%)
